Assay results taken from the supplement of paper PMC10307832.

Tests used:
Experiment in all cases: relative viability (nuclei count vs DMSO), 5 days (fraction); higher = more cells survive
[1] = compound: COc1cccc2c1C(=O)c1c(O)c3c(c(O)c1C2=O)C[C@@](O)(C(=O)CO)C[C@@H]3O[C@H]1C[C@H](N)[C@H](O)[C@H](C)O1 [Doxorubicin] + COc1cc2c(Oc3ccc(NC(=O)C4(C(=O)Nc5ccc(F)cc5)CC4)cc3F)ccnc2cc1OCCCN1CCOCC1 [Foretinib] (partner 0.25 µM)
Outline: (§1)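 Relative viability is defined as nuclei in treated wells over nuclei in vehicle wells. Duplicate plates were run and medians reported. Lung cancer cell lines in 1536-well plates were dosed by pin tool one day after seeding, with one drug or with a fixed anchor-drug dose plus five library-drug doses (not always all listed) in √10 steps, and nuclei were counted after 5 days.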

[2] = compound: COC1=C(C=C(C=C1)C2=CC3=NC=CN3C(=N2)NC4=C(C=CC=N4)C(=O)N)OC [BAY61-3606] + Cc1nc(Nc2ncc(C(=O)Nc3c(C)cccc3Cl)s2)cc(N2CCN(CCO)CC2)n1 [Dasatinib] (partner 0.075 µM)
Outline: as §1

[3] = compound: COC1=C(C=C(C=C1)C2=CC3=NC=CN3C(=N2)NC4=C(C=CC=N4)C(=O)N)OC [BAY61-3606] + Cc1nc(NC(=O)N2CCC[C@H]2C(N)=O)sc1-c1ccnc(C(C)(C)C(F)(F)F)c1 [Alpelisib] (partner 2 µM)
Outline: as §1

[4] = compound: COc1cccc2c1C(=O)c1c(O)c3c(c(O)c1C2=O)C[C@@](O)(C(=O)CO)C[C@@H]3O[C@H]1C[C@H](N)[C@H](O)[C@H](C)O1 [Doxorubicin] + N=C(N)NC(=N)NCCc1ccccc1 [Phenformin] (partner 250 µM)
Outline: as §1

Cell Line | relative viability ([1]; first compound 0.001 µM) | relative viability ([1]; first compound 0.003162 µM) | relative viability ([1]; first compound 0.01 µM) | relative viability ([1]; first compound 0.03162 µM) | relative viability ([1]; first compound 0.1 µM) | relative viability ([2]; first compound 0.02 µM) | relative viability ([2]; first compound 0.06325 µM) | relative viability ([2]; first compound 0.2 µM) | relative viability ([2]; first compound 0.6325 µM) | relative viability ([2]; first compound 2 µM) | relative viability ([3]; first compound 0.02 µM) | relative viability ([3]; first compound 0.06325 µM) | relative viability ([3]; first compound 0.2 µM) | relative viability ([3]; first compound 0.6325 µM) | relative viability ([3]; first compound 2 µM) | relative viability ([4]; first compound 0.001 µM) | relative viability ([4]; first compound 0.003162 µM) | relative viability ([4]; first compound 0.01 µM) | relative viability ([4]; first compound 0.03162 µM) | relative viability ([4]; first compound 0.1 µM)
NCI-H1437 | 1.16 | 1.26 | 1.24 | 1.1 | 0.621 | 0.382 | 0.355 | 0.391 | 0.382 | 0.403 | 0.987 | 0.988 | 0.935 | 1.06 | 0.903 | 0.317 | 0.269 | 0.242 | 0.256 | 0.158
NCI-H1563 | 0.876 | 0.878 | 0.728 | 0.58 | 0.502 | 0.477 | 0.406 | 0.508 | 0.421 | 0.428 | 1.02 | 0.905 | 0.894 | 0.894 | 0.683 | 0.618 | 0.573 | 0.546 | 0.524 | 0.501
NCI-H1651 | 0.842 | 0.929 | 0.737 | 0.48 | 0.222 | 0.379 | 0.459 | 0.387 | 0.32 | 0.318 | 0.991 | 0.964 | 0.938 | 0.967 | 0.738 | 0.319 | 0.336 | 0.259 | 0.154 | 0.153
NCI-H1666 | 0.964 | 0.872 | 0.792 | 0.5 | 0.468 | 0.841 | 0.804 | 0.813 | 0.742 | 0.652 | 0.903 | – | 0.981 | 0.993 | 0.956 | 0.604 | 0.504 | 0.481 | 0.368 | 0.337
NCI-H1734 | 0.854 | 0.989 | 0.934 | 0.68 | 0.769 | 0.582 | 0.386 | 0.409 | 0.331 | 0.272 | 0.706 | 0.615 | 0.653 | 0.654 | 0.413 | 0.385 | 0.413 | 0.356 | 0.262 | 0.261
NCI-H1755 | 0.981 | 0.949 | 0.903 | 0.971 | 0.937 | 0.415 | 0.412 | 0.432 | 0.397 | 0.317 | 0.946 | 1.01 | 0.908 | 0.903 | 0.77 | 0.612 | 0.642 | 0.618 | 0.675 | 0.626
NCI-H1793 | – | 0.881 | 0.63 | 0.531 | 0.594 | 0.365 | 0.357 | – | 0.32 | 0.427 | 0.817 | 0.782 | 0.64 | 0.882 | 0.839 | – | 0.291 | 0.355 | 0.334 | 0.429
NCI-H1915 | 1.1 | 1.11 | 1.02 | 1.06 | 1.1 | 0.313 | 0.312 | 0.344 | 0.314 | 0.272 | 1.07 | 1.08 | 1.06 | 1.03 | 0.93 | 0.354 | 0.355 | 0.367 | 0.375 | 0.353
NCI-H1944 | 0.848 | 0.945 | 0.908 | 0.812 | 0.869 | 0.216 | 0.205 | 0.232 | 0.21 | 0.193 | 0.911 | 0.867 | 0.842 | 0.703 | 0.505 | 0.182 | 0.224 | 0.206 | 0.177 | 0.172
NCI-H1975 | 0.998 | 1 | 0.879 | 0.855 | 0.444 | 0.378 | 0.31 | 0.367 | 0.282 | 0.253 | 0.667 | 0.645 | 0.62 | 0.507 | 0.295 | 0.397 | 0.422 | 0.383 | 0.219 | 0.179
NCI-H1993 | 0.876 | 0.851 | 0.769 | 0.673 | 0.839 | 0.581 | 0.56 | 0.566 | 0.521 | 0.491 | 0.644 | 0.674 | 0.719 | 0.758 | 0.703 | 0.508 | 0.494 | 0.455 | 0.491 | 0.453
NCI-H2009 | 1.13 | 1.18 | 1.15 | 0.947 | 0.946 | 0.318 | 0.288 | 0.281 | 0.233 | 0.142 | 1.11 | 1.14 | 1.09 | 1.21 | 1.08 | 0.483 | 0.482 | 0.481 | 0.414 | 0.275
NCI-H2023 | 0.567 | 0.934 | 0.507 | 0.461 | 0.17 | 0.639 | 0.601 | 0.554 | 0.525 | 0.334 | 0.614 | 0.607 | 0.604 | 0.6 | 0.471 | 0.431 | 0.398 | 0.321 | 0.126 | 0.0808
NCI-H2085 | 1.05 | 0.981 | 1.08 | 0.923 | 0.855 | 0.281 | 0.226 | 0.285 | 0.248 | 0.25 | 0.994 | 0.977 | 1.04 | 0.949 | 0.871 | 0.733 | 0.709 | 0.653 | 0.545 | 0.478
NCI-H2087 | – | 1.1 | 1.03 | 0.851 | 0.693 | 1.01 | 0.858 | 0.906 | 0.79 | 0.635 | 1.15 | 1.17 | 1.02 | 1.16 | 0.949 | – | 0.45 | 0.405 | 0.273 | 0.247
NCI-H2126 | 1.29 | 1.12 | 0.884 | 1.12 | 1.28 | 0.676 | 0.599 | 0.573 | 0.567 | 0.356 | 0.784 | 0.769 | 0.705 | 0.739 | 0.671 | 0.556 | 0.531 | 0.475 | 0.299 | 0.273
NCI-H2170 | 0.994 | 1.07 | 0.998 | 0.96 | 0.97 | 0.64 | 0.508 | 0.539 | 0.465 | 0.352 | 0.775 | 0.869 | 0.801 | 0.857 | 0.512 | 0.379 | 0.388 | 0.411 | 0.485 | 0.432
NCI-H2228 | 0.805 | 0.992 | 0.689 | 0.651 | 0.363 | 0.572 | 0.498 | 0.571 | 0.46 | 0.278 | 0.702 | 0.654 | 0.782 | 0.736 | 0.561 | 0.284 | 0.312 | 0.242 | 0.107 | 0.118
NCI-H2347 | 0.845 | 0.847 | 0.708 | 1.02 | 0.714 | 0.328 | 0.3 | 0.283 | 0.332 | 0.319 | 1.17 | 0.9 | 1.13 | 1.16 | 0.986 | 0.434 | 0.513 | 0.428 | 0.374 | 0.273
NCI-H2405 | 1.02 | 1.1 | 1.02 | 1.09 | 1 | 0.203 | 0.205 | 0.201 | 0.181 | 0.185 | 1.03 | 0.619 | 0.682 | 0.881 | 0.574 | 0.346 | 0.373 | 0.436 | 0.419 | 0.355
NCI-H3122 | 0.959 | 0.918 | 0.944 | 0.942 | 0.904 | 0.838 | 0.882 | 0.736 | 0.897 | 0.691 | 0.797 | 0.879 | 0.868 | 0.833 | 0.69 | 0.369 | 0.365 | 0.337 | 0.245 | 0.148
PC-3 [JPC-3] | 1.05 | 1.06 | 1.05 | 0.97 | 1.06 | – | 1.07 | 1 | 0.928 | 0.862 | 1.05 | 1.08 | 1.04 | 1.05 | 0.878 | 0.448 | 0.478 | 0.515 | 0.468 | 0.471
PC-14 | 1 | 0.967 | 0.998 | 0.912 | 0.931 | 0.269 | 0.249 | 0.264 | 0.287 | 0.176 | 0.996 | 0.995 | 0.929 | 1.06 | 0.841 | 0.421 | 0.629 | 0.709 | 0.284 | 0.213
RERF-LC-KJ | 0.9 | 0.944 | 0.81 | 0.761 | 0.867 | 0.843 | 0.856 | 0.702 | 0.886 | 0.517 | 0.957 | 0.751 | 0.765 | 0.853 | 0.629 | 0.397 | 0.443 | 0.372 | 0.325 | 0.271
SK-LU-1 | 0.85 | 0.812 | 0.76 | 0.507 | 0.333 | 0.2 | 0.148 | 0.148 | 0.169 | 0.152 | 1.37 | 0.951 | 1.04 | 0.844 | 0.421 | 0.367 | 0.558 | 0.449 | 0.226 | 0.173
SK-MES-1 | 1 | 0.843 | 0.923 | 0.818 | 0.766 | 0.379 | 0.302 | 0.357 | 0.339 | 0.23 | 1.02 | 0.968 | 1 | 0.986 | 0.7 | 0.655 | 0.648 | 0.612 | 0.285 | 0.222
SW 1573 | 0.921 | 1.19 | 0.829 | 0.451 | 0.503 | 0.535 | 0.416 | 0.43 | 0.373 | 0.203 | 0.838 | 0.679 | 0.88 | 0.822 | 0.451 | 0.337 | 0.355 | 0.216 | 0.111 | 0.0738
